Earlier results as cited in patent US20050255458A1, “Drug discovery assays based on the biology of chronic disease” (priority 2002, published 2005).
Several values for one entry are separate records, joined by “and”; a condition that tells them apart may be missing. Equal entries are not always repeated. Where two headings read alike, the source gives them in different places.

Columns and labels:
Details in all cases: cited from earlier work
monocytes on VCAM-1 = system: monocytes on VCAM-1
VCAM-1 = system: VCAM-1
AR = AR (Homo sapiens, UniProt P10275)
AR, sequence (P10275 whole entry): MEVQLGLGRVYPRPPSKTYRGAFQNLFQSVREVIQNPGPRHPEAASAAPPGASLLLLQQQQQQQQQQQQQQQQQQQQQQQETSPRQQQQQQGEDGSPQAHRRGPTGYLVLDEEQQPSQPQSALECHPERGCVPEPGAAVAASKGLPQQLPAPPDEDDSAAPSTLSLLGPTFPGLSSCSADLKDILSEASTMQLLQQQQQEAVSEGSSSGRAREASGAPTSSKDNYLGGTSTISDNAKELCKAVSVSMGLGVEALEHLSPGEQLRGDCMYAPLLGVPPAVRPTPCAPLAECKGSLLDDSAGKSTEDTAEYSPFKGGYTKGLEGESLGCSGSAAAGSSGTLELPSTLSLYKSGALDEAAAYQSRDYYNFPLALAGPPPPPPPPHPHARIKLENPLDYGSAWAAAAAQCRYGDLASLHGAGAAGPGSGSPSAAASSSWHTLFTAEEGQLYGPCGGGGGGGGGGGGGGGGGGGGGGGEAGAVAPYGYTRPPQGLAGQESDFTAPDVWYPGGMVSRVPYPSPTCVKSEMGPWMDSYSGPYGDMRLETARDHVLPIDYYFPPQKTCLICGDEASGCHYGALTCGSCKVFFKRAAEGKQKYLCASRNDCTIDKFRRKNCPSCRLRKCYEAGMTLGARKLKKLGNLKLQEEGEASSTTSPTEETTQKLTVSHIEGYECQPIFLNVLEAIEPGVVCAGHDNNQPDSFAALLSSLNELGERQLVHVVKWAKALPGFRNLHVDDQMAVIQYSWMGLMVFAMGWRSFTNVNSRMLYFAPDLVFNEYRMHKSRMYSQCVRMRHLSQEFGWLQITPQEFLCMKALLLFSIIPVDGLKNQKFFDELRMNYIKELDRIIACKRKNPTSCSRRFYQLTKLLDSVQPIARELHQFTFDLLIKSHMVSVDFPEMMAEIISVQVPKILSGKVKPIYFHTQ

Substance	Average velocity (monocytes on VCAM-1) [μm/min]	average percent of monocyte remaining bound (VCAM-1; 8.5 dyn/cm^2, 0-6.99 minutes of stimulation, 1 ng/ml) [%]	average percent of monocyte remaining bound (VCAM-1; 8.5 dyn/cm^2, 7.0-13.99 minutes) [%]	average percent of monocyte remaining bound (VCAM-1; 8.5 dyn/cm^2, 14.0-30.0 minutes) [%]	average percent of monocyte remaining bound (VCAM-1; 36 dyn/cm^2, 0-6.99 minutes) [%]	average percent of monocyte remaining bound (VCAM-1; 36 dyn/cm^2, 14.0-30.0 minutes) [%]	Bmax (AR)
MCP-1: a chemokine	2.43 ± 1.36	51	67	31	36	16	–
[^3H]methyltrienolone [[3H]methyltrienolone (R1881)]	–	–	–	–	–	–	30.1 ± 4.3 fmol/mg protein and 26.8 ± 3.0 fmol/mg protein and 18.7 ± 4.4 fmol/mg protein
